Source: patent US7560428B2, “Hair growth promoting oligopeptides” (Sumitomo Electric Industries, Ltd., priority 2004, dated 2009)
Entries after “also recorded” stand apart in the source; their conditions may differ. No end group written: not given here. *: point of attachment. KMUA = N-κ-maleimidoundecanoic acid-derived modifying group bound to a cysteine residue, O=C(O)CCCCCCCCCCN1C(=O)CC(*)C1=O; BMPA = N-β-maleimidopropionic acid-derived modifying group bound to a cysteine residue; Hexanoyl(6-maleimido) = O=C1C=CC(=O)N1CCCCCC(=O)*

Tested on: AHF (antigen recognized by the monoclonal antibody mAb27)
Assay: Hair growth promoting activity in cultured mouse skin tissue: strength of the mAb27 reaction (AHF band) by Western blot
Assay type: cell-based, ICR baby mice
Conditions: test oligopeptide 20 μM, skin tissue cultured at 37° C. for 6 days, versus PBS control; FIGS. 4 and 5
Text: The skin tissues of the upper jaw of ICR baby mice with an age of 12 days old were recovered under a stereoscopic microscope. The skin tissues were collected from both the left and right sides of the upper jaw, and the tissues were recovered from the total 5 mice. The skin sections recovered from the 5 mice were divided into the skin sections from the left side (used as a control) and those from the right side (used as a test oligopeptide). Thereafter, 5 skin sections were placed on a single nuclepore membrane (pore size: 8 μm; diameter: 13 mm). The skin sections were observed under a stereoscopic microscope, and the outside thereof was disposed on the front. 500 μl of Dulbecco's MEM/Ham F12 medium containing 1% BSA was added to 2 wells of a 24-well dish. Thereafter, a test oligopeptide solution (solvent: PBS) was added to one well to a final concentration of 20 μM, and only a solvent (PBS) as a control was added at the same amount to the other well. As test oligopeptides, unmodified oligopeptides and modified oligopeptides produced in (1) above were used.
Each of the membranes on which the skin tissues were placed was put on the aforementioned solution filled in the well, and it was then cultured at 37° C. for 6 days. From each membrane, 5 tissue sections were recovered in 100 μl of an SDS sample buffer (0.02 g/ml SDS, 0.2 g/ml glycerol, pH 6.8). The recovered sections were then dissolved therein using an ultrasonic crusher. The control was treated in the same manner. The solution obtained by the aforementioned treatment was electrophoresed (35 mA, 1.5 hours) by SDS-PAGE (acrylamide: 4% to 20%), and it was then transferred to a PVDF membrane. Thereafter, it was incubated in a Tris buffer solution (TBST) containing 5% skimmed milk for 1 hour. Thereafter, the resultant was allowed to react with mAb27 (10 μg/ml in TBST) obtained in Example 2 for 1 hour, and it was then sufficiently washed with TBS. Thereafter, peroxidase-labeled anti-rat IgG (Amersham) was 1,000 times diluted with TBST, and the diluted solution was used as a secondary antibody. The secondary antibody was allowed to react with the above resultant product, and the obtained reaction product was then sufficiently washed. Thereafter, the strength of the reaction of mAb27 was examined using an ECL kit (Amersham).
The term “AHF” shown in FIGS. 4 and 5 represents an antigen recognized by the monoclonal antibody mAb27 (specifically, a protein consisting of 1,439 amino acid residues shown in SEQ ID NO: 11).

Row | Substance | hair growth activity (thickness of AHF band detected with mAb27)
1 | Ser-Ile-Glu-Gln-Ser-Xaa-Ala-Gln-Glu (SIEQSC(Hexanoyl(6-maleimido))AQE) [SEQ ID NO: 9] | particularly strong hair growth activity
2 | Ser-Ile-Glu-Gln-Ser-Xaa-Asp [BMPA] (SIEQSC(BMPA)D) | strong hair growth activity
3 | Ser-Ile-Glu-Gln-Ser-Xaa-Asp [EMCA] (SIEQSC(Hexanoyl(6-maleimido))D) | strong hair growth activity; also recorded: particularly strong
4 | Ser-Ile-Glu-Gln-Ser-Xaa-Asp [KMUA] (SIEQSC(KMUA)D) | strong hair growth activity
5 | Ser-Ile-Glu-Gln-Ser-Xaa-Asp-Gln-Asp-Glu (SIEQSC(Hexanoyl(6-maleimido))DQDE) [SEQ ID NO: 8] | particularly strong hair growth activity
6 | Ser-Ile-Glu-Gln-Ser-Xaa-Glu-Gln-Glu (SIEQSC(Hexanoyl(6-maleimido))EQE) [SEQ ID NO: 10] | strong hair growth activity
